How the values were obtained:
[1] = mefloquine enantiomers; cited from earlier work
[2] = system: Wildtype (WT) mouse embryonic fibroblasts (MEFs); test: HCQ effect on AAV (rAAV2.CAG.GFP.WPRE.pA) transduction in MEFs, flow cytometry GFP / 7-AAD; type: cell-based
Method: Cell culture. Wildtype (WT) mouse embryonic fibroblasts (MEFs) were seeded into 6-well plates. 24 hr after seeding the cells were incubated in culture media with HCQ concentrations of 3.125-50 uM for 1 hr prior to transduction with a rAAV2.CAG.GFP.WPRE.pA vector at a MOI of 1000. The cells were cultured in HCQ containing media until harvesting. Cells were imaged 3 days post-transduction (FIG. 1A).
Flow cytometry analysis. Cells were processed 3 days post-transduction and stained with the cell viability dye 7-AAD for 5 minutes prior to flow cytometry analysis. Fluorescent light was measured by a BD LSRFortessa flow cytometer using a blue laser with the bandpass filters 695 nm/[…] and 530 nm/[…] to detect the fluorochromes of 7-AAD and GFP, respectively (FIG. 1a).

Primary NHP RPE cells [3] = test: HCQ effect on AAV transduction in primary NHP RPE cells, GFP qPCR; type: cell-based, Rhesus macaque (M. mullata); settings: 18.75 μM HCQ, 3 days post-transduction, normalized to β-actin, N=3, p=0.0253
Method: (§1) Harvesting non-human primate (NHP) retinal pigment epithelium (RPE) cells. After enucleation, the cornea and lens were removed under direct visualization with a surgical microscope. Radial incisions were made towards the posterior pole to flatten the eyecup. The retina was removed by blunt dissection and the remaining eyecup was placed in media and stored on ice until the RPE cells were removed. RPE cells were detached using the TrypLE cell dissociation reagent and were cultured at 37° C.
(§2) Cell culture. Primary NHP RPE cells were seeded into a 12-well plate. 24 hr after seeding, the cells were incubated in media with 3.125 uM or 18.75 uM of HCQ for 1 hr prior to transduction with 2×10^9 genome copies per well. Cells were imaged 3 days post-transduction.
RNA & protein extraction and cDNA synthesis. The primary NHP RPE were harvested for RNA extraction 3-days post-AAV transduction with HCQ. Total RNA was extracted using the RNeasy Mini Kit (Qiagen) according to the manufacturer's instructions. Copy DNA was synthesised using 850-1500 ng of RNA using the Superscript III Kit (Invitrogen) with an oligo dT primer.
qPCR analysis. qPCR was carried out using TaqMan probes against GFP and β-actin in a CFX Connect thermal cycler (BioRad). GFP expression was normalized to β-actin and represented as a fold change to transduced cells incubated without HCQ.

Primary NHP RPE cells [4] = test: HCQ effect on AAV transduction in primary NHP RPE cells, GFP protein western blot; type: cell-based, Rhesus macaque (M. mullata); settings: 18.75 μM HCQ
Method: as §1, §2
Protein extraction. The flow through from RNA extraction above was combined with 4 volumes of acetone and incubated on ice for 30 min. Samples were centrifuged at 17,000×g for 30 min, the supernatant was discarded and the pellet washed in 100 μL of ice-cold ethanol. Pellets were resuspended in 1% SDS.
(§3) Western blot. Total protein content in cell lysates was determined using the bicinchoninic acid method. GFP and actin proteins were probed using monoclonal antibodies, and detected using ECL and Odyssey Imaging System (LI-COR). Data analysis was performed using ImageStudio Lite software (LI-COR). GFP band density was normalised to β-actin.

human retinal explants = test: HCQ effect on AAV transduction in human retinal explants, mean grey value (GFP fluorescence); type: cell-based; settings: 3.125 uM HCQ, 1×10^9 genome copies rAAV2.CAG.GFP.WPRE.pA, imaged every 2 days for 11 days, n=6, p=0.0213
Method: Harvesting tissue. Human retina fragments was extracted during routine retinal surgery in which a retinectomy was required (ethics approved). Fragments of retina were removed via a 23G sclerostomy with vitrectomy cutter (at minimal cut rate) and manual aspiration.
Culturing explants. Within 1 hr of tissue collection, retinal fragments were transferred using a 3 mL Pasteur pipette into individual organotypic culture inserts (BD Falcon), which were in turn placed within a 24-well plate. 400 uL of media was placed beneath the insert and 100 uL of media within the insert. 24 hr after culturing the retinal explants, the media was replaced with media containing 3.125 uM or 18.75 uM of HCQ. The explants were incubated in the HCQ medium for 1 hour prior to transduction with 1×10^9 genome copies of rAAV2.CAG.GFP.WPRE.pA vector. The explants were imaged every 2 days for 11 days and the mean grey value (representative of GFP fluorescence) of the explants was measured using ImageJ software (FIG. 3a).

retina of C57BL/6 mice [5] = test: Subretinal co-injection of AAV GFP vector and HCQ in mice, cSLO fundus autofluorescence; type: in vivo, mouse; settings: AAV 1×10^8 genome copies with 18.75 uM HCQ, 4 and 8 weeks post-injection
Method: (§4) Subretinal injections. 7 week old female C57BL/6 mice were subretinally injected with 1.2 μL vector suspension (1×10^8 genome copies). The vector was prepared with a 3.125 uM or 18.75 uM final concentration of HCQ with control preparations without any HCQ. Animals were injected with an AAV+HCQ preparation in one eye and AAV only in the paired eye.
Confocal scanning laser ophthalmoscope (cSLO) analysis. Standardized mouse autofluorescence (AF) imaging using a cSLO (Spectralis HRA, Heidelberg Engineering) was performed in all animals according to previously published protocol. All images were recorded using the 55° lens of the Spectralis HRA at 2, 4 and 8 weeks post-injection. Images were recorded using a standardized signal detector sensitivity. For quantitative analysis of fundus AF, the mean grey level was measured within a ring-shaped area located at radii between 350 and 860 pixels from the optic disc centre using ImageJ software (NIH).

retina of C57BL/6 mice [6] = test: Subretinal co-injection of AAV GFP vector and HCQ in mice, OCT retinal thickness; type: in vivo, mouse; settings: subretinal injection suspension with 3.125 uM or 18.75 uM HCQ, OCT at 2, 4 and 8 weeks
Method: as §4
OCT analysis. Animals were subject to wide-field spectral-domain optical coherence tomography (OCT, Spectralis HRA, Heidelberg Engineering) at 2, 4 and 8 weeks post-injection. Mice were scanned using a 55° lens and 8 radial sections were taken with a real-time average process of 25 frames. The total retinal thickness and the outer limiting membrane (OLM) thickness were manually measured on alternate radial sections using a calliper.

Mouse retinas = test: Subretinal co-injection of AAV GFP vector and HCQ in mice, GFP western blot of retinas; type: in vivo; settings: 18.75 μM HCQ
Method: as §4
Protein extraction. Mouse retinas were thawed on ice and lysed in 1× RIPA buffer+protease inhibitors. The retinas were homogenised using a hand-held homogeniser and incubated on ice for 30 mins. The samples were centrifuged at 17,000×g at 4° C. for 20 mins. The supernatant was transferred to a new tube and kept on ice.
as §3, with “blot (WB).” for “blot.”, “actin.” for “β-actin.”

O[C@H](c1cc(C(F)(F)F)nc2c(C(F)(F)F)cccc12)[C@@H]1CCCCN1 (single isomer, unassigned) [(+)-enantiomer]
half-life compared with the other enantiomer [1]: shorter

CCN(CCO)CCCC(C)Nc1ccnc2cc(Cl)ccc12 (stereo not shown) [HCQ, 2-[{4-[(7-chloroquinolin-4-yl)amino]pentyl}(ethyl)amino]ethanol]
HCQ concentration that induces cell death ([2]; 7-AAD viability dye, 3 days post-transduction): ≥ 25 µM
number of GFP expressing cells ([2]; HCQ 3.125-50 uM from 1 hr before transduction, rAAV2.CAG.GFP.WPRE.pA MOI 1000, 3 days post-transduction): increase the number of GFP expressing cells up to 18.75 uM
GFP mRNA expression, fold change to transduced cells incubated without HCQ (Primary NHP RPE cells [3]): 3 fold
GFP protein expression increase compared to transduced cells incubated without HCQ (Primary NHP RPE cells [4]; 3 days post-transduction (FIGS. 2a and 2b)): 19 fold
GFP protein expression improvement by western blot (Primary NHP RPE cells [4]; N=2, GFP band density normalised to β-actin (FIG. 2c)): approximately 4 fold
increase in mean grey value (representative of GFP fluorescence) compared to no HCQ (human retinal explants): up to 2 fold
increase in mean grey value of fundus AF images (surrogate measure of GFP expression) compared to control eyes injected with AAV only (retina of C57BL/6 mice [5]): 2 fold
mean retinal thickness or retinal morphology, groups with and without HCQ (retina of C57BL/6 mice [6]): no significant difference
GFP signal detected by WB compared to the 0 μM HCQ paired eye (Mouse retinas): increase in the GFP signal
